Source: US9096646B2, “CXCR4 receptor compounds” (priority 2008, dated 2015)
Read-outs that look alike come from different tables or passages of the source. Square brackets hold non-standard residues; d marks the D form. Peptide text beside a SMILES is read from it. * marks the point of attachment. ξ: configuration not given here. Palmitoyl = CCCCCCCCCCCCCCCC(=O)*; ξF = NC(Cc1ccccc1)C(=O)O

Tests used:
Type in all cases: cell-based
CXCR4 [1] = biological target: T1, CXCR4 (Homo sapiens, UniProt P61073); assay: Calcium flux assay in CCRF-CEM cells (SDF-1α activation of CXCR4; intrinsic agonist activity); design: a human T-cell ALL line that endogenously expresses CXCR4; endogenous in cells; host or cells: CCRF-CEM (human T-cell ALL line); conditions: SDF-1α activation of CXCR4, Calcium-4 dye, read-out: IC50 (nM), CXCR4 i1 loop compound Calcium Flux Data
T1 sequence (P61073 whole entry): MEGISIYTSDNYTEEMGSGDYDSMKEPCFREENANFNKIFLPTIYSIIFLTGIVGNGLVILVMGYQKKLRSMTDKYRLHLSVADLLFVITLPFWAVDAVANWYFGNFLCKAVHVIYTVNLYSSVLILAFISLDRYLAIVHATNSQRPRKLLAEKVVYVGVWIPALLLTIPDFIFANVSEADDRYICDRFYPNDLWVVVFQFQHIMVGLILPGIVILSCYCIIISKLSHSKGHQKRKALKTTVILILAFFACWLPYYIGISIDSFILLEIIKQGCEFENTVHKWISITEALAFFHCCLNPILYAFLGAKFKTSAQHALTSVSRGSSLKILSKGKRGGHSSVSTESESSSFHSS
Excerpt: Calcium Flux Assay is one of the most popular cell-based GPCR functional assays. It most often uses calcium sensing fluorescent dyes such as fura2 AM, fluo-4 and Calcium-4 to measure changes in intracellular calcium concentration. It is used mainly to detect GPCR signaling via Gaq subunit. Activation of these Gq-coupled GPCRs leads to activation of phospholipase C, which subsequently leads to increase in inositol phosphate production. IP3 receptors on endoplasmic reticulum sense the change then release calcium into cytoplasm. Intracellular calcium binding to the fluorescent dyes can be detected by instruments that quantify fluorescent intensities, such as FLIPR Tetra, Flexstation (MDS) and FDSS (Hamamatsu). In additional to assess Gq-couple receptor signaling, calcium flux assay can also be used to study Gs and Gi couple receptors by co-expressing CNG (cyclic nucleotide gated calcium channel) or chimeric G-proteins (Gqi5, Gsi5 for example). Activation of some Gi-coupled receptors can also be detected by calcium flux assay via Gβγmediated phospholipase C activation.
The calcium flux assay was used to assess SDF-1α activation of CXCR4 in CCRF-CEM cells (human T lymphoblasts from acute lymphoblastic leukemia). CCRF-CEM cells were seeded into 96-well black plates with clear bottom at 200K/well in RPMI 1640 media with 20 mM HEPES containing 0.2% BSA. After dye loading by incubating with Calcium-4 dye at 37° C. for 1 hour, cell plates were read at 37° C. using the Flexstation 3 workstation. The addition of test compounds or reference antagonists was accomplished either by manual pipetting or by liquid handling using the Flexstation. The latter allows the assessment of intrinsic agonist activity of the test compounds by measuring initial changes in fluorescent intensity. After incubation of 24 minutes at 37° C., SDF-1α was added and receptor activation was assessed by measuring changes in fluorescent intensity using the Flexstation.

CXCR4 [2] = biological target: T1, CXCR4; assay: Chemotaxis assay, effect on SDF1-a (CXCL12) induced migration of CCRF-CEM cells; design: a human T-cell ALL line that endogenously expresses CXCR4; endogenous in cells; host or cells: CCRF-CEM (human T-cell ALL line); conditions: CCRF-CEM, Table 18, i1 loop, CEM cells; for activity at 0.03 µM: drug conc 0.03 uM; for activity at 0.1 µM: drug conc 0.1 uM; for activity at 0.3 µM: drug conc 0.3 uM; for activity at 3 µM: drug conc 3.0 uM
CXCR4 [3] = biological target: T1, CXCR4; assay: Chemotaxis assay using SUP B-15 cells; design: A similar procedure was followed for chemotaxis using SUP B-15 cells; endogenous in cells; host or cells: SUP B-15 cells; conditions: SUP-B15, Table 18, i1 loop, SUP B-15 cells, drug conc 1.0 uM
Excerpt: Chemotaxis assays were utilized to determine the effect of compound on the directed migration of cells in response to chemokine. Cells that express a receptor of interest were placed in the upper chamber of a Transwell chemotaxis plate (Corning) and allowed to migrate through a polycarbonate membrane to a lower chamber containing the appropriate receptor-specific ligand. To test for antagonist or potentiating activity, cells were mixed with the desired concentration of compound prior to addition to the upper chamber. Conversely, agonist activity was determined by adding compound in the bottom chamber only without endogenous chemokine. The effect of compound is quantified by several parameters, including the extent of maximum response, the shift of agonist dose-response curves, and the area under the curve.
To measure the CXCR4-dependent migration of cells, the appropriate concentration of CXCL12 (SDF1a) or test compound was diluted in phenol red-free RMPI-1640/20 mM HEPES/0.5% BSA buffer and placed in the bottom chamber of a transwell apparatus. CCRF-CEM cells, a human T-cell ALL line that endogenously expresses CXCR4, were washed twice in buffer and resuspended at 133,000 cells/ml. A 75 μl sample of this suspension is mixed with the test compound of interest and placed in the upper chamber of a 5-micron transwell apparatus.
To initiate cell migration, the assembled transwell plate was placed in a 37° C., […] incubator for a specified time interval, typically between 30 and 120 minutes. After incubation, the unit was disassembled and the lower chamber placed at −80° C. overnight to facilitate lysis of cells. To quantify migrated cells, plates were thawed at 37° C. in a humidified chamber, and then a sample volume was removed from each well and mixed with an equal volume of CyQuant (Invitrogen) working solution in opaque plates. The fluorescence intensity of each well represents the DNA content and is directly proportional to cell number. Each sample was typically run in duplicate or triplicate and each plate included two separate negative controls. The plate background control, which included no cells in the upper chamber, was subtracted from all values. The negative control had no agonist added in the lower chamber, and served to establish the baseline for random migration. A similar procedure was followed for chemotaxis using SUP B-15 cells.

For `CCCCCCCCCCCCCCCC(=O)N[C@@H](CCSC)C(=O)NCC(=O)N[C@@H](Cc1ccc(O)cc1)C(=O)N[C@@H](CCC(N)=O)C(=O)N[C@@H](CCCCN)C(=O)N[C@@H](CCCCN)C(=O)N[C@@H](CC(C)C)C(=O)N[C@H](CCCNC(=N)N)C(=O)N[C@@H](CO)C(=O)N[C@@H](CCSC)C(=O)N[C@H](C(=O)N[C@@H](CC(=O)O)C(=O)N[C@@H](CCCCN)C(=O)N[C@@H](Cc1ccc(O)cc1)C(=O)N[C@@H](CCCNC(=N)N)C(=O)N[C@@H](CC(C)C)C(N)=O)[C@@H](C)O` [Compound 171] (Palmitoyl-MGYQKKL[dR]SMTDKYRL-NH2), which IC50 (CXCR4 [1]) is on record?
Its IC50 is 72 nM.

`CCCCCCCCCCCCCCCC(=O)N[C@@H](CCSC)C(=O)NCC(=O)N[C@@H](Cc1ccc(O)cc1)C(=O)N[C@@H](CCC(N)=O)C(=O)N[C@@H](CCCCN)C(=O)N[C@@H](CCCCN)C(=O)N[C@H](CC(C)C)C(=O)N[C@@H](CCCNC(=N)N)C(=O)N[C@@H](CO)C(=O)N[C@@H](CCSC)C(=O)N[C@H](C(=O)N[C@@H](CC(=O)O)C(=O)N[C@@H](CCCCN)C(=O)N[C@@H](Cc1ccc(O)cc1)C(=O)N[C@@H](CCCNC(=N)N)C(=O)N[C@@H](CC(C)C)C(N)=O)[C@@H](C)O` [Compound 170] (Palmitoyl-MGYQKK[dL]RSMTDKYRL-NH2) was tested. Which IC50 (CXCR4 [1]) did it give?
The IC50 was 72 nM.

Which IC50 (CXCR4 [1]) does the source give for `CCCCCCCCCCCCCCCC(=O)N[C@@H](CCSC)C(=O)NCC(=O)N[C@@H](Cc1ccc(O)cc1)C(=O)N[C@@H](CCC(N)=O)C(=O)N[C@@H](CCCCN)C(=O)N[C@@H](CCCCN)C(=O)N[C@@H](CC(C)C)C(=O)N[C@@H](CCCNC(=N)N)C(=O)N[C@@H](CO)C(=O)N[C@@H](CCSC)C(=O)N[C@H](C(=O)N[C@@H](CC(=O)O)C(=O)N[C@@H](CCCCN)C(=O)N[C@@H](Cc1ccc(O)cc1)C(=O)N[C@@H](CCCNC(=N)N)C(=O)N[C@H](CC(C)C)C(N)=O)[C@@H](C)O` [Compound 159] (Palmitoyl-MGYQKKLRSMTDKYR[dL]-NH2) here?
The IC50 was over 10000 nM.

Which IC50 (CXCR4 [1]) does the source give for `CCCCCCCCCCCCCCCC(=O)N[C@@H](CCSC)C(=O)NCC(=O)N[C@@H](Cc1ccc(O)cc1)C(=O)N[C@@H](CCC(N)=O)C(=O)N[C@H](CCCCN)C(=O)N[C@@H](CCCCN)C(=O)N[C@@H](CC(C)C)C(=O)N[C@@H](CCCNC(=N)N)C(=O)N[C@@H](CO)C(=O)N[C@@H](CCSC)C(=O)N[C@H](C(=O)N[C@@H](CC(=O)O)C(=O)N[C@@H](CCCCN)C(=O)N[C@@H](C)C(=O)N[C@@H](CCCNC(=N)N)C(=O)N[C@@H](CC(C)C)C(N)=O)[C@@H](C)O` [Compound 151] (Palmitoyl-MGYQ[dK]KLRSMTDKARL-NH2) here?
The IC50 was over 10000 nM.

With `CCCCCCCCCCCCCCCC(=O)N[C@@H](CCCCN)C(=O)N[C@@H](CCCCN)C(=O)N[C@@H](CC(C)C)C(=O)N[C@@H](CCCNC(=N)N)C(=O)N[C@@H](CO)C(=O)N[C@@H](CCSC)C(=O)N[C@H](C(=O)N[C@@H](CC(=O)O)C(=O)N[C@@H](CCCCN)C(=O)N[C@@H](Cc1ccc(O)cc1)C(=O)N[C@@H](CCCNC(=N)N)C(=O)N[C@@H](CC(C)C)C(=O)N[C@@H](Cc1cnc[nH]1)C(N)=O)[C@@H](C)O` [Compound 43] (Palmitoyl-KKLRSMTDKYRLH-NH2) as the compound, how does the activity at 0.01 µM (CXCR4 [2]; drug conc 0.01 uM, read-out: AUC (% of)) read?
Its activity at 0.01 µM is 110%.

And the activity at 0.03 µM (CXCR4 [2]; read-out: AUC (% of))?
Its activity at 0.03 µM is 110%.

What about the activity at 0.03 µM (CXCR4 [2]; read-out: Max (% of)) of the same compound?
Its activity at 0.03 µM is 92.7%.

And the activity at 0.1 µM (CXCR4 [2]; read-out: AUC (% of))?
The activity at 0.1 µM was 108%.

What about the activity at 0.1 µM (CXCR4 [2]; read-out: Max (% of)) of the same compound?
The activity at 0.1 µM was 93.6%.

And the activity at 0.3 µM (CXCR4 [2]; read-out: AUC (% of))?
Its activity at 0.3 µM is 97.9%.

What about the activity at 0.3 µM (CXCR4 [2]; read-out: Max (% of)) of the same compound?
The activity at 0.3 µM was 84.5%.

What about the activity at 1 µM (CXCR4 [2]; drug conc 1.0 uM, read-out: Max (% of)) of the same compound?
Its activity at 1 µM is 78.9%.

What about the activity at 3 µM (CXCR4 [2]; read-out: AUC (% of)) of the same compound?
Its activity at 3 µM is 79.4%.

What about the activity at 3 µM (CXCR4 [2]; read-out: Max (% of)) of the same compound?
The activity at 3 µM was 76.3%.

And the activity at 1 µM (CXCR4 [3]; read-out: AUC (% of))?
Its activity at 1 µM is 70.8%.

What about the activity at 1 µM (CXCR4 [3]; read-out: Max (% of)) of the same compound?
Its activity at 1 µM is 55.8%.

How did the IC50 (CXCR4 [1]) turn out when `CCCCCCCCCCCCCCCC(=O)N[C@@H](CCSC)C(=O)NCC(=O)N[C@@H](Cc1ccc(O)cc1)C(=O)N[C@@H](CCC(N)=O)C(=O)N[C@@H](CCCCN)C(=O)N[C@@H](CCCCN)C(=O)N[C@@H](CC(C)C)C(=O)N[C@@H](CCCNC(=N)N)C(=O)N[C@@H](CO)C(=O)N[C@@H](CCSC)C(=O)N[C@H](C(=O)N[C@@H](CC(=O)O)C(=O)N[C@@H](CCCCN)C(=O)N[C@H](Cc1ccc(O)cc1)C(=O)N[C@@H](CCCNC(=N)N)C(=O)N[C@@H](CC(C)C)C(N)=O)[C@@H](C)O` [Compound 161] (Palmitoyl-MGYQKKLRSMTDK[dY]RL-NH2) was run?
Its IC50 is over 10000 nM.

How did the IC50 (CXCR4 [1]) turn out when `CCCCCCCCCCCCCCCC(=O)N[C@@H](CCSC)C(=O)NCC(=O)N[C@@H](Cc1ccc(O)cc1)C(=O)N[C@@H](CCC(N)=O)C(=O)N[C@H](CCCCN)C(=O)N[C@@H](CCCCN)C(=O)N[C@@H](CC(C)C)C(=O)N[C@@H](CCCNC(=N)N)C(=O)N[C@@H](CO)C(=O)N[C@@H](CCSC)C(=O)N[C@H](C(=O)N[C@@H](CC(=O)O)C(=O)N[C@@H](CCCCN)C(=O)NC(Cc1ccccc1)C(=O)N[C@@H](CCCNC(=N)N)C(=O)N[C@@H](C)C(N)=O)[C@@H](C)O` (stereo partly shown) [Compound 153] (Palmitoyl-MGYQ[dK]KLRSMTDK[ξF]RA-NH2) was run?
Its IC50 is over 10000 nM.

For `CCCCCCCCCCCCCCCC(=O)N[C@@H](CCSC)C(=O)NCC(=O)N[C@@H](Cc1ccc(O)cc1)C(=O)N[C@@H](CCC(N)=O)C(=O)N[C@H](CCCCN)C(=O)N[C@@H](CCCCN)C(=O)N[C@@H](CC(C)C)C(=O)N[C@@H](CCCNC(=N)N)C(=O)N[C@@H](CO)C(=O)N[C@@H](CCSC)C(=O)N[C@H](C(=O)N[C@@H](CC(=O)O)C(=O)N[C@@H](CCCCN)C(=O)N[C@@H](Cc1ccc(O)cc1)C(=O)N[C@@H](C)C(=O)N[C@@H](CC(C)C)C(N)=O)[C@@H](C)O` [Compound 152] (Palmitoyl-MGYQ[dK]KLRSMTDKYAL-NH2), which IC50 (CXCR4 [1]) is on record?
Its IC50 is over 10000 nM.
